From ChEMBL document CHEMBL1201862, “PubChem BioAssay data set” (2004)
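48-hour exposure; five concentrations; linearly interpolated endpoints. At the GI50, growth is halved.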 Activity calls are given as the source filed them. No stated cut-off is given here; in the data, active = GI50 up to about 1.1 µM and inactive = higher.

What was measured:
Assay in all cases: DTP human tumour cell line panel, 48 h
[1] = test system: HOP-62
[2] = test system: CAKI-1
[3] = test system: HCC 2998
[4] = test system: M14
[5] = test system: OVCAR-8
[6] = test system: T47D
[7] = test system: SK-MEL-2
[8] = test system: SF-295
[9] = test system: IGROV-1
[10] = test system: SK-MEL-5
[11] = test system: HCT-15
[12] = test system: EKVX
[13] = test system: TK-10
[14] = test system: KM12
[15] = test system: RXF 393
[16] = test system: HOP-92
[17] = test system: COLO 205
[18] = test system: HT-29
[19] = test system: MDA-N
[20] = test system: RPMI-8226

Row | Compound | GI50 [1] | GI50 [2] | GI50 [3] | GI50 [4] | GI50 [5] | GI50 [6] | GI50 [7] | GI50 [8] | GI50 [9] | GI50 [10] | GI50 [11] [µM] | GI50 [12] | GI50 [13] | GI50 [14] | GI50 [15] | GI50 [16] | GI50 [17] | GI50 [18] | GI50 [19] | GI50 [20]
1 | C1COC2SC3=C(SC(=C4SC5=C(SCCS5)S4)S3)SC2O1 (stereo not drawn) | > 100 µM (inactive) | > 100 µM (inactive) | > 100 µM (inactive) | 94 µM (inactive) | > 100 µM (inactive) | 60.4 µM (inactive) | > 100 µM (inactive) | 36.7 µM (inactive) | 77.6 µM (inactive) | 80.2 µM (inactive) | 8.49 | > 100 µM (inactive) | > 100 µM (inactive) | 17.4 µM (inactive) | > 100 µM (inactive) | > 100 µM (inactive) | > 100 µM (inactive) | > 100 µM (inactive) |  | 
2 | O=C(c1ccccc1)c1ccc(COc2ccc(C(c3c(O)c4ccccc4oc3=O)c3c(O)c4ccccc4oc3=O)cc2)cc1 | 20.5 µM (inactive) | 22.8 µM (inactive) | 18.5 µM (inactive) |  | 17.2 µM (inactive) | 20.5 µM (inactive) | 18.2 µM (inactive) | 19.4 µM (inactive) | 13.5 µM (inactive) | 18.8 µM (inactive) | 37.3 | 19.8 µM (inactive) | 17.1 µM (inactive) | 16.1 µM (inactive) | 19 µM (inactive) |  | 20.2 µM (inactive) | 18.3 µM (inactive) | 26.5 µM (inactive) | 12.5 µM (inactive)
3 | O=c1[nH]c(=O)n(C2OC(COP(=O)(O)OP(=O)(O)O)C(O)C2O)cc1F (stereo not drawn) | 2.24 µM (inactive) | 0.368 µM (active) | 0.538 µM (active) | 1.55 µM (inactive) | 2.11 µM (inactive) |  | 6.79 µM (inactive) | 0.822 µM (active) | 11.8 µM (inactive) | 4.31 µM (inactive) | 0.446 | 2.44 µM (inactive) | 15.6 µM (inactive) | 2.28 µM (inactive) | 2.57 µM (inactive) | > 50 µM (inactive) | 1.57 µM (inactive) | 0.716 µM (active) |  | 0.436 µM (active)
4 | O=C(COc1ccc(Cl)cc1Cl)N/N=C/C=C/c1ccc([N+](=O)[O-])o1 | 15.1 µM (inactive) | > 100 µM (inactive) |  | 2.72 µM (inactive) | 3.44 µM (inactive) | > 100 µM (inactive) | 3.27 µM (inactive) | 23.3 µM (inactive) | 1.42 µM (inactive) | 1.96 µM (inactive) | 3.37 | 17.5 µM (inactive) | 7.67 µM (inactive) | 4.86 µM (inactive) | 6.07 µM (inactive) |  |  | 7.01 µM (inactive) | 3.43 µM (inactive) | 2.26 µM (inactive)
5 | [O-][n+]1cc(SCc2ccccc2)ncc1SCc1ccccc1 | > 10 µM (inactive) | > 10 µM (inactive) | > 10 µM (inactive) | > 10 µM (inactive) | > 10 µM (inactive) | > 10 µM (inactive) | > 10 µM (inactive) | > 10 µM (inactive) | > 10 µM (inactive) | > 10 µM (inactive) | > 10 | > 10 µM (inactive) | > 10 µM (inactive) | > 10 µM (inactive) | > 10 µM (inactive) | > 10 µM (inactive) | > 10 µM (inactive) | > 10 µM (inactive) |  | > 10 µM (inactive)
6 | CC(C)(C)OC(=O)N(CCCCNC(=O)C(F)(F)F)CCCNC(=O)C(F)(F)F | > 100 µM (inactive) | > 100 µM (inactive) | > 100 µM (inactive) | > 100 µM (inactive) | > 100 µM (inactive) | > 100 µM (inactive) | > 100 µM (inactive) | > 100 µM (inactive) | > 100 µM (inactive) | > 100 µM (inactive) | > 100 | > 100 µM (inactive) | > 100 µM (inactive) | > 100 µM (inactive) | > 100 µM (inactive) | > 100 µM (inactive) | > 100 µM (inactive) | > 100 µM (inactive) |  | > 100 µM (inactive)
7 | COC(=O)CCC(=O)N1CC1C (stereo not drawn) | > 100 µM (inactive) | > 100 µM (inactive) | > 100 µM (inactive) | > 100 µM (inactive) | > 100 µM (inactive) |  | > 100 µM (inactive) | > 100 µM (inactive) | > 100 µM (inactive) | > 100 µM (inactive) | > 100 | > 100 µM (inactive) | > 100 µM (inactive) | > 100 µM (inactive) | > 100 µM (inactive) | > 100 µM (inactive) | > 100 µM (inactive) | > 100 µM (inactive) |  | > 100 µM (inactive)
8 | COc1ccc2c(c1)CC[C@@H]1[C@@H]2CC[C@]2(C)C(=O)/C(=C/c3ccc(N(C)C)cc3)C[C@@H]12 | 20.8 µM (inactive) | 28.1 µM (inactive) | > 100 µM (inactive) | 61.2 µM (inactive) |  | 44.1 µM (inactive) | 24.9 µM (inactive) | 40.2 µM (inactive) |  | 73.1 µM (inactive) | > 100 | 63.5 µM (inactive) | 33.2 µM (inactive) | 84.3 µM (inactive) | 27 µM (inactive) | 24.2 µM (inactive) | > 100 µM (inactive) |  |  | > 100 µM (inactive)
